Reference: PubChem BioAssay (NCI)
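Dose response: 5 concentrations. Exposure: 48 h. Format: 96-well plates. Endpoint: linear interpolation; highest concentration if not reached. The concentration for full growth arrest is given as TGI.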 Where a SMILES comes first, the peptide text is derived from it. [ ]: non-standard residue; d: D form. The star is where a group is joined. Phe(4-NO2) = N[CH](Cc1ccc([N+](=O)[O-])cc1)C(=O)O; Boc = CC(C)(C)OC(=O)*

Columns and labels:
Experiment in all cases: growth of human tumour cells (NCI), 48 h
[1] = test system: IGROV1 ovarian
[2] = test system: KM12 colon
[3] = test system: HS 578T breast
[4] = test system: NCI-H226 lung
[5] = test system: M14 melanoma
[6] = test system: OVCAR-5 ovarian
[7] = test system: K-562 leukemia
[8] = test system: SK-MEL-2 melanoma
[9] = test system: 786-0 renal
[10] = test system: U251 CNS
[11] = test system: HOP-92 NSCLC
[12] = test system: MALME-3M melanoma

SMILES	TGI [1]	TGI [2]	TGI [3]	TGI [4]	TGI [5]	TGI [6]	TGI [7]	TGI [8]	TGI [9]	TGI [10]	TGI [11]	TGI [12]
N#Cc1ccc(-n2c3ccccc3c3ccc4c(c32)C(=O)C=CC4=O)cc1	16.2 µM	26.5 µM	39.3 µM	> 74.5 µM	7.57 µM	34.8 µM	> 100 µM	28.9 µM	3.16 µM	17.8 µM	–	–
CCN1CCC(O)(c2ccc(Cl)cc2)C(C(=O)c2ccc(Cl)cc2)C1 (configuration not stated)	> 100 µM	> 100 µM	–	–	> 100 µM	> 100 µM	> 100 µM	> 100 µM	> 100 µM	> 100 µM	> 100 µM	–
CCN(CC)C(=O)C(C)n1cc(C)c(=O)[nH]c1=O (configuration not stated)	> 100 µM	> 100 µM	–	–	> 100 µM	> 100 µM	> 100 µM	> 100 µM	> 100 µM	> 100 µM	–	> 100 µM
Cc1nc2c(=O)n(C)ncc2[nH]1	> 100 µM	> 100 µM	> 100 µM	> 100 µM	> 100 µM	> 100 µM	> 100 µM	> 100 µM	> 100 µM	> 100 µM	–	–
CN(C)c1nc(Cl)c2c(-c3ccccc3)c(-c3ccccc3)oc2n1	> 100 µM	> 100 µM	> 100 µM	> 100 µM	> 100 µM	> 100 µM	> 100 µM	–	> 100 µM	> 100 µM	> 100 µM	–
C[C@@H]1CC[C@@H]2[C@@H](C1)O[C@@H]([C@H](C)OCc1ccccc1)SC2(C)C	> 100 µM	36.1 µM	–	33 µM	47.1 µM	31.7 µM	39.5 µM	33 µM	62.1 µM	33.5 µM	–	53.1 µM
Nc1nc2c3nc(Nc4ccccc4)sc3nc(=O)n2c2sc(Nc3ccccc3)nc12	> 100 µM	–	–	> 100 µM	> 100 µM	–	> 100 µM	–	> 100 µM	> 100 µM	> 100 µM	> 100 µM
COC(=O)c1c2cccccc-2c(Cc2c3cccccc-3c(C(=O)OC)c2O)c1O	> 100 µM	> 100 µM	–	> 100 µM	> 100 µM	> 100 µM	> 100 µM	> 100 µM	> 100 µM	> 100 µM	> 100 µM	> 100 µM
COc1cc(Cc2nccc3cc(OC)c(OC)cc23)c(N=NN(C)C)cc1OC	39.2 µM	40.2 µM	86.5 µM	60 µM	39.3 µM	40.9 µM	> 100 µM	70.2 µM	18.6 µM	72 µM	–	38.4 µM
O=C(NNC(=S)NC1CCCCC1)c1csc(NC(=S)NC2CCCCC2)n1	26.6 µM	87.6 µM	–	> 100 µM	16.1 µM	40.1 µM	–	33.7 µM	19.9 µM	20.2 µM	–	26 µM
COc1cc(CNNC(N)=S)cc(OC)c1OC	> 100 µM	> 100 µM	> 100 µM	> 100 µM	> 100 µM	> 100 µM	> 100 µM	–	> 100 µM	> 100 µM	> 100 µM	> 100 µM
CNC(=O)CCC(NC(=O)OC(C)(C)C)C(=O)NC(Cc1ccc([N+](=O)[O-])cc1)C(=O)NCC(=O)NC (configuration not stated) (Boc-Glu(NHMe)-[Phe(4-NO2)]-Gly-NHMe; configuration not given here)	> 100 µM	> 100 µM	> 100 µM	> 100 µM	> 100 µM	> 100 µM	> 100 µM	–	> 100 µM	> 100 µM	> 100 µM	> 100 µM
C(=C\c1ccco1)/c1cccc(/C=C/c2ccco2)n1	> 50 µM	> 50 µM	> 50 µM	> 50 µM	> 50 µM	> 50 µM	> 50 µM	–	> 50 µM	–	> 50 µM	> 50 µM
COc1cc(/C=c2\sc3n(c2=O)C(c2ccc(Cl)cc2)C2=C(CCCC2C)N=3)cc(OC)c1OC (configuration not stated)	> 100 µM	> 100 µM	> 100 µM	–	> 100 µM	> 100 µM	> 100 µM	> 100 µM	> 100 µM	> 100 µM	> 100 µM	–
COc1ccc(/C=C2\CCC(C)C3=C2N=c2s/c(=C/c4cccc(Br)c4)c(=O)n2C3c2ccc(OC)c(OC)c2)cc1OC (configuration not stated)	> 100 µM	> 100 µM	> 100 µM	–	> 100 µM	> 100 µM	> 100 µM	> 100 µM	> 100 µM	> 100 µM	> 100 µM	–
CC1(C)CCC[C@]2(C)[C@H]3[C@H](C#N)c4cc(O)c(O)cc4O[C@@]3(C)CC[C@@H]12	> 10 µM	> 10 µM	> 10 µM	> 10 µM	> 10 µM	> 10 µM	> 10 µM	> 10 µM	> 10 µM	> 10 µM	> 10 µM	–
CC(=O)O[C@H]1C(=O)[C@@]2(C)C(C(OC(=O)c3ccccc3)C3[C@@H](O)C(OC(=O)[C@@H](O)[C@H](NC(=O)c4ccccc4)c4ccc(C(F)(F)F)cc4)C(C)=C1C3(C)C)[C@]1(OC(C)=O)CO[C@@H]1C[C@@H]2O (some centres not stated)	> 25 µM	–	–	> 25 µM	> 25 µM	> 25 µM	> 25 µM	> 25 µM	> 25 µM	> 25 µM	–	> 25 µM
CC(=O)OCC1OC(n2c(-c3ccc(C)cc3)cc(-c3ccccc3)c(C#N)c2=S)C(OC(C)=O)C(OC(C)=O)C1OC(C)=O (configuration not stated)	> 100 µM	> 100 µM	> 100 µM	> 100 µM	> 100 µM	> 100 µM	> 100 µM	–	> 100 µM	> 100 µM	> 100 µM	> 100 µM

SMILES	TGI [1]	TGI [2]	TGI [3]	TGI [4]	TGI [5]	TGI [6]	TGI [7]	TGI [8]	TGI [9]	TGI [10]	TGI [11]	TGI [12]
COc1ccc(SCc2cc(OCc3ccccc3)c(OCc3ccccc3)c(OCc3ccccc3)c2)cc1	3.34 µM	3.16 µM	–	3.73 µM	3.57 µM	3.4 µM	2.62 µM	–	2.89 µM	3.22 µM	3.08 µM	3.37 µM
C=C1C2C[C@@H]3O[C@H]4C[C@H]5O[C@@]6(C[C@@H]7O[C@]8(C[C@H](C)[C@@H]9O[C@@H]%10CC(CO)O[C@@H]%10C[C@@H]9O8)C[C@H](C)[C@@H]7O6)C[C@H]5O[C@H]4[C@H](C)[C@H]3OC(=O)C[C@H]3CC[C@@H]4OC5[C@H]6O[C@]7(CC[C@H]8CC(=C)[C@H](CC[C@@H](C[C@H]1C)O2)O8)CC6O[C@@H]5[C@@H](O7)[C@H]4O3 (some centres not stated)	> 1 µM	–	< 0.0001 µM	0.00022 µM	> 1 µM	> 1 µM	> 1 µM	> 1 µM	> 0.413 µM	> 1 µM	> 1 µM	> 1 µM
C=CCc1cccc2cc(C(=O)Nc3ccccn3)c(=N)oc12	> 100 µM	> 100 µM	> 100 µM	> 100 µM	> 100 µM	> 100 µM	> 100 µM	> 100 µM	> 100 µM	> 100 µM	> 100 µM	–
O=C(Nc1nc(C23CC4CC(CC(C4)C2)C3)cs1)c1cc2ccccc2oc1=O	> 100 µM	> 100 µM	> 100 µM	> 100 µM	–	> 100 µM	> 100 µM	–	> 100 µM	> 100 µM	> 100 µM	> 100 µM
Cc1cn(CC2=NCC(C)N2)c(=O)[nH]c1=O (configuration not stated)	> 100 µM	–	> 100 µM	> 100 µM	> 100 µM	> 100 µM	> 100 µM	> 100 µM	> 100 µM	> 100 µM	> 100 µM	> 100 µM
COCN1C(=O)[C@@H]2CCCN2C(=O)c2cc(N)ccc21	> 100 µM	> 100 µM	> 100 µM	–	> 100 µM	> 100 µM	–	> 100 µM	> 100 µM	> 100 µM	–	> 100 µM
COc1ccc2nc(-c3ccc(O)cc3)sc2c1	36.2 µM	86.9 µM	–	45.8 µM	47.5 µM	31.6 µM	> 100 µM	> 100 µM	29.1 µM	36.2 µM	–	51.6 µM
O=C1CC(c2ccccc2)n2cccc21 (configuration not stated)	> 100 µM	> 100 µM	> 100 µM	> 100 µM	> 100 µM	> 100 µM	> 100 µM	> 100 µM	> 100 µM	> 100 µM	> 100 µM	–
C=C1CCC([N+](=O)[O-])[C@](C)(N=O)CC[C@@H]2C1CC2(C)C (some centres not stated)	59.1 µM	65.5 µM	39 µM	30.9 µM	> 100 µM	36.1 µM	79.1 µM	–	42.6 µM	48.2 µM	44.9 µM	49.5 µM
COC(=O)C1(C)C=CC(=O)C2(C)C1C(O)C1OC3CC(c4ccoc4)C(C)=C3C1(C)C2CC(=O)O (configuration not stated)	> 100 µM	> 100 µM	> 100 µM	–	> 100 µM	> 100 µM	–	> 100 µM	> 100 µM	> 100 µM	> 100 µM	> 100 µM
COC(=O)C(Cc1c[nH]c2ccccc12)NC(=O)C(Cc1c[nH]c2ccccc12)NC(=O)C(Cc1c[nH]c2ccccc12)NC(=O)C(Cc1c[nH]c2ccccc12)NC(=O)C(Cc1c[nH]c2ccccc12)NC(=O)C(Cc1c[nH]c2ccccc12)NC(=O)C(Cc1c[nH]c2ccccc12)NC(=O)C(Cc1c[nH]c2ccccc12)NC(=O)OC(C)(C)C (configuration not stated) (Boc-WWWWWWWW-OMe; configuration not given here)	> 100 µM	–	–	> 100 µM	25.1 µM	> 100 µM	> 100 µM	> 100 µM	> 100 µM	> 100 µM	–	> 100 µM
CO/N=C(\C)CCC#Cc1ccccc1C(=O)OC	> 10 µM	> 10 µM	> 10 µM	> 10 µM	> 10 µM	> 10 µM	> 10 µM	> 10 µM	> 10 µM	> 10 µM	–	> 10 µM
O=C(NCCCCCCNC(=O)c1cc(-c2ccccc2)nc2ccccc12)c1cc(-c2ccccc2)nc2ccccc12	> 100 µM	–	> 100 µM	> 100 µM	> 100 µM	> 100 µM	> 100 µM	–	> 100 µM	> 100 µM	> 100 µM	> 100 µM
Cc1cc(S(=O)(=O)Nc2nc3ccccc3c(=O)n2N)c(S)cc1Cl	> 100 µM	> 100 µM	–	67.1 µM	> 100 µM	> 100 µM	> 100 µM	> 100 µM	81.6 µM	> 100 µM	–	56.9 µM
C=C(Br)CNC(=O)CCC(=O)NCC(=C)Br	> 100 µM	> 100 µM	> 100 µM	> 100 µM	> 100 µM	> 100 µM	> 100 µM	> 100 µM	> 100 µM	> 100 µM	–	> 100 µM
COc1ccc2c(c1)CCc1c-2n(CCN2CCCCC2)c2ccc(OC)cc12	> 100 µM	–	> 100 µM	56.7 µM	> 100 µM	> 100 µM	> 100 µM	> 100 µM	> 100 µM	> 100 µM	–	> 100 µM
CC(=O)Nc1ccc(C2SCc3nc4ccccc4n32)cc1 (configuration not stated)	> 100 µM	> 100 µM	> 95.5 µM	–	> 100 µM	> 100 µM	> 100 µM	> 100 µM	> 100 µM	> 100 µM	> 100 µM	> 86.8 µM
Cn1c2ccccc2c(=O)c2cccc(C(=O)NC(CCC(N)=O)C(=O)O)c21 (configuration not stated)	> 100 µM	> 100 µM	> 100 µM	> 100 µM	> 100 µM	> 100 µM	> 100 µM	> 100 µM	> 100 µM	> 100 µM	–	> 100 µM
